Laboratory results reported in PubChem BioAssay (NCI).
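All cell lines were grown in 96-well plates and treated with compound for 48 hours. TGI marks complete inhibition of growth.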 Where a SMILES comes first, the peptide text is derived from it. [ ]: non-standard residue; d: D form. The star is where a group is joined. ξ: configuration not given here. X37 = O=C(OCc1ccccc1)[C@@H]1CCC[C@H]1N*; Fmoc = O=C(OCC1c2ccccc2-c2ccccc21)*; ξW = NC(Cc1c[nH]c2ccccc12)C(=O)O; ξF = NC(Cc1ccccc1)C(=O)O; Boc = CC(C)(C)OC(=O)*; ξK = NCCCCC(N)C(=O)O; ξT = CC(O)C(N)C(=O)O; tBu = CC(C)(C)*

What was measured:
Assay in all cases: DTP human tumour cell line panel, 48 h
A549 NSCLC = tested on: A549 NSCLC
RXF 393 renal = tested on: RXF 393 renal
HT29 colon = tested on: HT29 colon
PC-3 prostate = tested on: PC-3 prostate
UACC-62 melanoma = tested on: UACC-62 melanoma
OVCAR-8 ovarian = tested on: OVCAR-8 ovarian
RPMI-8226 leukemia = tested on: RPMI-8226 leukemia
OVCAR-5 ovarian = tested on: OVCAR-5 ovarian
EKVX NSCLC = tested on: EKVX NSCLC
UACC-257 melanoma = tested on: UACC-257 melanoma
NCI-H226 lung = tested on: NCI-H226 lung
DU-145 prostate = tested on: DU-145 prostate

Row | Compound | TGI (A549 NSCLC) [µM] | TGI (RXF 393 renal) [µM] | TGI (HT29 colon) [µM] | TGI (PC-3 prostate) [µM] | TGI (UACC-62 melanoma) [µM] | TGI (OVCAR-8 ovarian) [µM] | TGI (RPMI-8226 leukemia) [µM] | TGI (OVCAR-5 ovarian) [µM] | TGI (EKVX NSCLC) [µM] | TGI (UACC-257 melanoma) [µM] | TGI (NCI-H226 lung) [µM] | TGI (DU-145 prostate) [µM]
1 | CC(OC(C)(C)C)C(NC(=O)C(CCCCNC(=O)OC(C)(C)C)NC(=O)C(Cc1c[nH]c2ccccc12)NC(=O)C(Cc1ccccc1)NC(=O)OCC1c2ccccc2-c2ccccc21)C(=O)NC(Cc1ccccc1)C(=O)N[C@@H]1CCC[C@H]1C(=O)OCc1ccccc1 (some centres undefined) (Fmoc-[ξF][ξW][ξK](Boc)[ξT](tBu)[ξF]-X37) | > 100 | > 100 | > 100 | > 100 | > 100 | > 100 | > 100 | > 100 | > 100 | > 100 | > 100 | > 100
2 | COc1ccc(N(C(=O)OC(C)(C)C)[C@@H]2C(C)=C[C@H]([S@@](=O)c3ccc(C)cc3)[C@@H]3C(=O)N(C)C(=O)[C@@H]32)cc1 | > 100 | 30.4 | 45.5 | > 100 | 48.4 | 46.7 | 44.3 | 43.1 | 9.85 | 43.8 | 34.6 | 81.8
3 | CC1(c2cccc(C3CCC4(C=CC3=O)OCCO4)c2)OCCO1 (centres undefined) | 34 | 11.5 | 25.8 | 31.1 | 18.1 | 30.9 | 28.9 | 32.2 | 37.5 | 21.5 | 49.2 | 31.8
4 | CC(C)(C)[C@@H]1NC(=O)CN1C(=O)OCc1ccccc1 | > 100 | > 100 | > 100 | > 100 | > 100 | > 100 | > 100 | > 100 | > 100 | > 100 | > 100 | > 100
5 | Cc1cc(SCC(=O)c2ccc(Br)cc2)cc(C)[o+]1 | > 100 | 62 | 65.2 | > 100 | > 100 | > 100 | 52.3 | 69.9 | 39.9 | 65.9 | 95.5 | 68.9
6 | Brc1ccc(-c2ccc(-c3ccc(Br)s3)s2)s1 | > 100 | > 100 | > 100 | > 100 | > 100 | > 100 | > 100 | > 100 | > 100 | > 100 | > 100 | > 100
7 | Cc1[nH]n(C(=O)c2ccccc2O)c(=O)c1/C=C1\C(=O)C=Cc2ccccc21 | 38.5 | 18.8 | > 81 | 23 | 2.36 | 28.5 | 31.1 | > 64.9 | 19.4 | 26.6 | 8.57 | 48.6
